Values of other authors in US20240408101A1, “COMPOSITION AND METHODS OF TREATMENT USING […] - ENHANCED SUPPLEMENTATION” (Xygenyx Inc., priority 2023, published 2024).
Where a SMILES comes first, the peptide text is derived from it.

Columns and labels:
[1] = compared to α-tocopherol taken as 1.0
[2] = even when dietary intake occurs in equal portions
[3] = mice
[4] = dietary supplementation, doses up to 400 IU/day, controlled trials
[5] = dietary supplementation, doses up to 400 IU/day
[6] = in combination with 10-20 mg β-carotene and 400-500 mg vitamin C, doses around 400-500 IU
F2-isoprostane = conditions: large doses of 1600-3200 IU/day
[7] = system: wide dynamic range neurons in the ventroposterolateral nucleus of the thalamus
skin [8] = conditions: topical application, concentrations 0.5-5%
skin [9] = conditions: topical formulations, within four weeks of treatment
[10] = in vivo
skin [11] = conditions: as penetration enhancer for transdermal drugs
[12] = in vivo; remark: listed apart in the source

Molecule: Cc1cc(O)c(C)c2c1O[C@](C)(CCC[C@H](C)CCC[C@H](C)CCCC(C)C)CC2 [β-tocopherol]
- relative biological activity [1]: 0.5

Molecule: Cc1cc(O)cc2c1O[C@](C)(CCC[C@H](C)CCC[C@H](C)CCCC(C)C)CC2 [δ-tocopherol]
- relative biological activity [1]: 0.03

Molecule: Cc1c(O)cc2c(c1C)O[C@](C)(CCC[C@H](C)CCC[C@H](C)CCCC(C)C)CC2 [γ-tocopherol]
- relative biological activity [1]: 0.1
- concentration in vivo relative to α-tocopherol [2]: roughly 10%

Molecule: CC(CN)C(=O)O [L-BAIBA, L-beta-aminoisobutyric acid]
- tolerated dose [3]: 10-100 mg/kg of bodyweight

Molecule: Cc1c(C)c2c(c(C)c1O)CC[C@@](C)(CCC[C@H](C)CCC[C@H](C)CCCC(C)C)O2 [α-tocopherol]
- reduction of risk of developing neurodegenerative diseases [4]: ≤ 24%
- reduction of risk of coronary disease [5]: up to 34%
- reduction in the development of age-related cataracts [6]: 23%
- relative biological activity [1]: 1.0
- blood plasma concentration of F2-isoprostane (F2-isoprostane): significantly lower

Molecule: CCCCCc1cc(O)c2c(c1)OC(C)(C)C1CCC(C)=CC21 (centres unmarked) [THC, Δ-9-tetrahydrocannabinol]
- analgesic power relative to morphine [7]: ten times more powerful than morphine

Molecule: C=CCCCCCCCCC(=O)N[C@@H](Cc1ccccc1)C(=O)O [UP, Undecylenoyl phenylalanine]
- time to skin lightening effects (skin [8]): ≥ 7 days

Molecule: CC[C@H](C)[C@H](NC(=O)[C@H](CC(=O)O)NC(=O)[C@@H](N)CCCCN)C(=O)N[C@@H](CCCNC(N)=O)C(N)=O [tripeptide-10 citrulline, Tripeptide-10 citrulline] (HELM PEPTIDE1{K.D.I.[Cit].[am]}$$$$V2.0)
- improvement of suppleness (skin [9]): ≤ 54%

Molecule: CCNC(=O)CC[C@H](N)C(=O)O [Theanine]
- dose considered safe and well-tolerated [10]: up to 400 mg per day

Molecule: CC12CCC(CC1)C(C)(C)O2 [eucalyptol, 1,8-epoxy-p-menthane]
- increase of transdermal drug uptake, factor (skin [11]): more than 10

Molecule: CC(C)[C@@H]1CC[C@@H](C)C[C@H]1O [Menthol]
- increase of transdermal drug uptake, factor (skin [11]): ≥ 10

Molecule: HGH: hormone comprising a peptide chain synthesized in the pituitary gland
- biological half-life [12]: 10-20 minutes
